Assay results taken from patent EP0235942B1, “Alkylenediamine derivatives” (NIPPON CHEMIPHAR CO., LTD., priority 1986, dated 1987).

How the values were obtained:
[1] = tested on: Neuromuscular Junction of Crayfish; experiment: Glutamate blocking effect on neuromuscular junction of crayfish (intracellular recording of the L-glutamate-induced potential); format: cell-based; conditions: for inhibition at 20 µM / inhibition at 0.5 µM: 5 min; for inhibition at 20 µM: inhibition ratio of glutamate potential induced by L-glutamate (1 x 10⁻⁴M), pretreated with test solution (2 x 10⁻⁵ M) for 5 min; for inhibition at 0.5 µM: as Table 1, but concentration of the pretreatment liquid reduced to 5 x 10⁻⁷ M; for glutamate response after washing: treated sample washed with circulating salt solution for 40 min, then glutamate response measured
Description: (1) Evaluation of glutamate blocking effect was performed according to the methods of Ishida et al [J. Physiol., 298, 301-319(1980)], and Shinozaki et al[Comp. Biochem. Physiol, 70c, 49-58(1981)]. In more detail, the opener muscle of the first walking leg of the crayfish is employed for the examination described below. A neuromusculor sample is fixed in a vessel, and an aqueous salt solution for crayfish [composition: NaCℓ (195 mM), CaCℓ₂ (18mM), KCℓ (5.4 mM), Tris-maleate buffer (pH 7.5, 10 mM), and glucose (11 mM)] was circulated at a constant rate into the vessel. A glass microelectrode filled with 3M KCℓ solution was inserted into the middle portion of the muscle fibre and the change of potential induced by L-glutamate (1 x 10⁻⁴M) was measured intracellularly. The glutamate blocking effect of the compound to be tested was evaluated by determining an inhibition ratio of glutamate potential protreated by the test solution (2 x 10⁻⁵ M) for 5 min.
(2) The glutamate blocking effects of the compound of the present invention as described in Synthesis Example 3 (i.e. 1-[3-[4-methyl-1-(3-methylbutyl)penty]amino]propyl]piperidine) and the known 5-methyl-1-phenyl-2-(3-piperidinopropylamino)hexan-1-ol were evaluated in the same manner as above except that the concentration of the liquid for the pretreatment was reduced from 2 x 10⁻⁵ M to 5 x 10⁻⁷ M. The results are set forth in Table 2.
(§1) (3) The neuromuscular sample which was fixed in the vessel and treated in the above manner was subsequently washed with the salt solution flowing in the vessel under circulation for 40 min. After such washing was complete, the glutamate response was measured on the wahsed neuromuscular sample. […] Accordingly, it was confirmed that the glutamate blocking action of the aninoalcohol derivative was not kept for sufficient period of time. […] The prolongation of the effect of glutamate response shown in using this alkylenediamine compound was also observed on the alkylenediamine derivatives tested in the (1) above, (4) Acute toxicity (LD₅₀, i.v.) was measured on the alkylenediamine drivatives of the invention and the known aminoalcohol derivative.

[2] = Acute toxicity (LD50, i.v.); conditions: in vivo, iv, read-out: Acute Toxicity (LD₅₀)
Description: as §1

[3] = tested on: opener muscle of the first walking leg of the crayfish; conditions: dose of 2 x 10⁻⁴M; glutamic acid (1x10⁻⁴M); cited from earlier work

Compound | inhibition at 20 µM [1] [%] | further results
CCCCCC(CCCCC)NCCCN1CCCCC1 [Synthesis Example 2, 1-[3-(1-Pentylhexylamino)propyl]piperidine] | 80 | LD50 [2]: 23.3 mg/kg
CCCCCCN(CCCN1CCCCC1)CCC(C)C [Synthesis Example 33, 1-[3-[N-hexyl-N-(3-methylbutyl)amino]propyl]piperidine] | 83 | –
CC(C)CCC(CNCCCN1CCCCC1)c1ccccc1 (stereo not drawn) [Synthesis Example 1, 1-[3-(5-Methyl-2-phenylhexylamino)propyl]piperidine] | 99 | –
CC(C)CCN(CCCN1CCCCC1)CCc1ccccc1 [Synthesis Example 29, 1-[3-[3-Methyl-N-(2-phenylethyl)butylamino]propyl]piperidine] | 80 | –
CCC(CC)C(CCC(C)C)NCCCN1CCCCC1 (stereo not drawn) [Synthesis Example 15, 1-[3-[1-(1-Ethylpropyl)-4-methylpentylamino]propyl]piperidine] | 94 | –
CC(C)CCN(CCCN1CCCCC1)CCC(C)C [Synthesis Example 26, 1-[3-[N,N-Bis-(3-methylbutyl)amino]propyl]piperidine] | 91 | LD50 [2]: 24.8 mg/kg
CC(C)CCC(Cc1ccccc1)NCCCN1CCCCC1 (stereo not drawn) [Synthesis Example 4, 1-[3-(1-Benzyl-4-methylpentylamino)propyl]piperidine] | 99 | –
CC(C)CCC(NCCCN1CCCCC1)C(O)c1ccccc1 (stereo not drawn) [5-Methyl-1-phenyl-2-(3-piperidinopropylamino)hexan-1-ol, reference compound] | – | inhibition at 0.5 µM [1]: 6%; glutamate response after washing [1]: almost the same level as shown by the sample prior to the treatment; LD50 [2]: 13.6 mg/kg
CC(C)CCOC(CNCCCN1CCCCC1)c1ccccc1 (stereo not drawn) [Synthesis Example 7] | 96 | –
CC(C)CCN(CCCc1ccccc1)CCCN1CCCCC1 [Synthesis Example 30, 1-[3-[3-Methyl-N-(3-phenylpropyl)butylamino]propyl]piperidine] | 96 | –
CC(C)CC(=O)OCC(Cc1ccccc1)NCCCN1CCCCC1 (stereo not drawn) [Synthesis Example 9, 3-Phenyl-2-(3-piperidinopropylamino)propyl 3-methylbutanoate] | 90 | –
CC(C)CCC(CNCCCN1CCCCC1)Cc1ccccc1 (stereo not drawn) [Synthesis Example 12, 1-[3-(2-Benzyl-5-methylhexylamino)propyl]piperidino] | 98 | –
COc1ccc([C@@H]2Sc3ccccc3N(CCN(C)C)C(=O)[C@@H]2OC(C)=O)cc1 [Diltiazem] | – | inhibition of depolarization induced by glutamic acid [3]: approx. 30%
CC(C)CCCCN(CCCCN1CCCCC1)CCC(C)C [Synthesis Example 38, 1-[4-[N-(3-Methylbutyl)-N-(5-methylhexyl)amino]butyl]piperidine] | 96 | –
CC(C)CCCCN(CCCN1CCCCCC1)CCC(C)C [Synthesis Example 41, 1-[3-[N-(3-Methylbutyl)-N-(5-methylhexyl)amino]propyl]perhydroazepin] | 100 | –
CC(C)CCC(CCC(C)C)NCCCN1CCCCC1 [Synthesis Example 3, 1-[3-[4-Methyl-1-(3-methylbutyl)pentylamino]propyl]-piperidine] | 99 | inhibition at 0.5 µM [1]: 25%; glutamate response after washing [1]: almost no glutamate response; LD50 [2]: 29.5 mg/kg
Caroberine | – | inhibition of depolarization induced by glutamic acid [3]: approx. 30%
CC(C)CCC(CCC(C)C)NCCCN1CCCC1 [Synthesis Example 20, 1-[3-[4-methyl-1-(3-methylbutyl)pentylamino]propyl]pyrrolidine] | 96 | –
CC(C)CCC(CCc1ccccc1)NCCCN1CCCCC1 (stereo not drawn) [Synthesis Example 10, 1-[3-[4-Methyl-1-(2-phenylethyl)pentylamino]propyl]piperidine] | 99 | –
CCCCCC(CCC(C)C)NCCCN1CCCCC1 (stereo not drawn) [Synthesis Example 18, 1-[3-[1-(3-Methylbutyl)hexylamino]propyl]piperidine] | 97 | –
CC(C)CCC(CCC(C)(C)C)NCCCN1CCCCC1 (stereo not drawn) [Synthesis Example 19, 1-[3-[4,4-Dimethyl-1-(3-methylbutyl]pentylamino]propyl]piperidine] | 88 | –
c1ccc(OC(CNCCCN2CCCCC2)c2ccccc2)cc1 (stereo not drawn) [Synthesis Example 8, 1-[3-(2-Phenoxy-2-phenylethylamino)propyl]piperidine] | 94 | –
CC(C)CCN(CCCN1CCCCC1)CCOc1ccccc1 [Synthesis Example 28, 1-[3-[3-Methyl-N-(2-phenoxyethyl)butylamino]propyl]piperidine] | 72 | –
CCCCCCCN(CCCN1CCCCC1)CCC(C)C [Synthesis Example 34, 1-[3-[N-heptyl-N-(3-methylbutyl)amino]propyl]piperidine] | 91 | –
CC(C)CCC(CCNCCCN1CCCCC1)Cc1ccccc1 (stereo not drawn) [Synthesis Example 11, 1-[3-(3-Benzyl-6-methylheptylamino)propyl]piperidine] | 96 | –
CC(C)CCC(CCCc1ccccc1)NCCCN1CCCCC1 (stereo not drawn) [Synthesis Example 13, 1-[3-[4-Methyl-1-(3-phenylpropyl)pentylamino]propyl]piperidine] | 96 | –
